Measured values taken from ChEMBL document CHEMBL3612063, “Multistage virtual screening and identification of novel HIV-1 protease inhibitors by integrating SVM, shape, pharmacophore and docking methods” (Eur J Med Chem, 2015).
Activity calls are given as the source filed them. The rule behind the calls is not given here. Square brackets hold non-standard residues; d marks the D form. Peptide text beside a SMILES is read from it. * marks the point of attachment. Hyp = O=C(O)[C@@H]1C[C@@H](O)CN1; ONp = O=[N+]([O-])c1ccc(O*)cc1; Cbz = O=C(OCc1ccccc1)*; Boc = CC(C)(C)OC(=O)*; OBn = c1ccc(CO*)cc1

Legend:
[1] = target: Protease (Human immunodeficiency virus 1) (UniProt Q9YQ12); experiment: Inhibition of recombinant HIV1 protease at 1 mM using FRET substrate peptide by FRET assay
Protease = Protease (Human immunodeficiency virus 1, UniProt Q9YQ12); experiment: Inhibition of recombinant HIV1 protease using FRET substrate peptide by FRET assay
[2] = target: Protease (Human immunodeficiency virus 1) (UniProt Q9YQ12); experiment: Inhibition of recombinant HIV1 protease at 2 uM using FRET substrate peptide by FRET assay

Protease (Human immunodeficiency virus 1), sequence (Q9YQ12 as listed by the source): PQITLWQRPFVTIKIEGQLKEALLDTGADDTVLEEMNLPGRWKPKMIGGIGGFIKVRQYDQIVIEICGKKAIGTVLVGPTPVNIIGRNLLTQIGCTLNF
Protease, sequence (Q9YQ12 whole entry): as the sequence (Q9YQ12 as listed by the source) above

Row | inhibition [1] | IC50 (Protease) [µM] | Structure (SMILES) | inhibition [2]
1 | Active | 162 | COC(=O)[C@H](Cc1ccc(O)cc1)NC(=O)[C@H](CC(C)C)NC(=O)[C@H](CO)NC(=O)OCc1ccccc1 (Cbz-Ser-Leu-Tyr-OMe) | –
2 | inactive | – | C[C@@H](NC(=O)[C@H](Cc1ccccc1)NC(=O)[C@H](Cc1ccccc1)NC(=O)OC(C)(C)C)C(=O)OCc1ccccc1 | –
3 | Active | 62 | COC(=O)[C@H](CC(C)C)NC(=O)[C@H](Cc1ccccc1)NC(=O)[C@H](CO)NC(=O)OCc1ccccc1 (Cbz-Ser-Phe-Leu-OMe) | –

The next lines start with the compound.

Row | Structure (SMILES) | inhibition [1] | IC50 (Protease) [µM] | inhibition [2]
4 | O=C(CNC(=O)[C@@H]1CCCN1C(=O)[C@@H]1C[C@@H](O)CN1C(=O)OCc1ccccc1)Oc1ccc([N+](=O)[O-])cc1 (Cbz-[Hyp]-Pro-Gly-ONp) | inactive | – | –
5 | CC(C)C[C@@H](NC(=O)[C@H](CSCc1ccccc1)NC(=O)OCc1ccccc1)C(=O)OCc1ccccc1 | inactive | – | –
6 | CC(C)CC(=O)N[C@H](C(=O)N[C@H](C(=O)N[C@@H](CC(C)C)[C@@H](O)CC(=O)N[C@@H](C)C(=O)N[C@@H](CC(C)C)[C@@H](O)CC(=O)O)C(C)C)C(C)C | – | – | Active
7 | CC(C)[C@H](NC(=O)[C@H](Cc1ccccc1)NC(=O)OC(C)(C)C)C(=O)NCC(=O)OCc1ccccc1 (Boc-Phe-Val-Gly-OBn) | inactive | – | –
